# Patent US6479435B1, “Diaryl ethers and processes for their preparation and herbicidal and desiccant compositions containing them” (ISK Americas Incorporated, priority 1997, dated 2002)
# How the values were obtained:
# Format in all cases: in vivo
# [1] = system: Johnsongrass (Sorghum halepense, SORHA); test: Pre-emerge greenhouse herbicide test, phytotoxicity rating; details: 14 days after application, rating scale 0-100
# From the text: (§1) A standard greenhouse herbicide activity screening system was used to evaluate the herbicidal efficacy and crop safety of these test compounds. Six broadleaf weed species including redroot pigweed (Amaranthus retroflexus, AMARE), velvetleaf (Abutilon theophrasti, ABUTH), sicklepod (Cassia obtusifolia, CASOB), ivyleaf morningglory (Ipomoea hederacea, IPOHE), lambsquarters (Chenopodium album, CHEAL) and common ragweed (Ambrosia artemisiifolia L., AMBEL) were used as test species. Four grass weed species including green foxtail (Setaria viridis, SETVI), barnyardgrass (Echinochloa crusgalli, ECHCG), Johnsongrass (Sorghum halepense, SORHA), and large crabgrass (Digitaria sanguinalis, DIGSA) were also used. In addition, three crop species, field corn (Zea mays L., var. Dekalb 535, CORN), soybean (Glycine max L., var. Pella 86, SOY), and upland rice (Oryza sp., var.Tebonnet, RICE) were included.
# (§2) All plants were grown in 10 cm square plastic pots which were filled with a sandy loam soil mix. For preemerge tests, seeds were planted one day prior to application of the test compounds. Immediately after application, test units of the pre-emerge applications were watered at the soil surface to incorporate the test materials. Subsequently, these test units were bottom-watered.
# (§3) All test compounds were dissolved in acetone and applied to the test units in a volume of 187 l/ha. Test materials were applied at rates ranging from 125 g ai/ha to 1000 g ai/ha using a track sprayer equipped with a TJ8001E even flow flat fan spray nozzle. Plants were arranged on a shelf so that the top of the canopy (post-emerge) or top of the soil surface (pre-emerge) was 40-45 cm below the nozzle. Pressurized air was used to force the test solution through the nozzle as it was mechanically advanced (via electrically driven chain drive) over the top of all test plants/pots. This application simulates a typical commercial field herbicide application.
# (§4) At 14 days after application of the test materials, phytotoxicity ratings were recorded. A rating scale of 0-100 was used as previously described in Research Methods in Weed Science, 2nd edition, B. Truelove, Ed., Southern Weed Science Society, Auburn University, Auburn, Ala., 1977. Briefly, “0” corresponds to no damage and “100” corresponds to complete death of all plants in the test unit. This scale was used both to determine efficacy against weed species and damage to crop species. Herbicide activity data for various compounds of this invention, which are shown by compound number in Tables 1-9, are shown in Tables 13 and 14.
# [2] = system: barnyardgrass (Echinochloa crusgalli, ECHCG); test: as above; details: 14 days after application, rating scale 0-100
# From the text: as §1, §2, §3, §4
# [3] = system: green foxtail (Setaria viridis, SETVI); test: as above; details: 14 days after application, rating scale 0-100
# From the text: as §1, §2, §3, §4
# [4] = system: ivyleaf morningglory (Ipomoea hederacea, IPOHE); test: as above; details: 14 days after application, rating scale 0-100
# From the text: as §1, §2, §3, §4
# [5] = system: lambsquarters (Chenopodium album, CHEAL); test: as above; details: 14 days after application, rating scale 0-100
# From the text: as §1, §2, §3, §4
# [6] = system: large crabgrass (Digitaria sanguinalis, DIGSA); test: as above; details: 14 days after application, rating scale 0-100
# From the text: as §1, §2, §3, §4
# [7] = system: redroot pigweed (Amaranthus retroflexus, AMARE); test: as above; details: 14 days after application, rating scale 0-100
# From the text: as §1, §2, §3, §4
# [8] = system: sicklepod (Cassia obtusifolia, CASOB); test: as above; details: 14 days after application, rating scale 0-100
# From the text: as §1, §2, §3, §4
# [9] = system: velvetleaf (Abutilon theophrasti, ABUTH); test: as above; details: 14 days after application, rating scale 0-100
# From the text: as §1, §2, §3, §4
# [10] = system: field corn (Zea mays L., var. Dekalb 535, CORN); test: Pre-emerge greenhouse test, crop damage rating; details: 14 days after application, rating scale 0-100
# From the text: as §1, §2, §3, §4
# [11] = system: upland rice (Oryza sp., var.Tebonnet, RICE); test: Pre-emerge greenhouse test, crop damage rating; details: 14 days after application, rating scale 0-100
# From the text: as §1, §2, §3, §4
# [12] = system: soybean (Glycine max L., var. Pella 86, SOY); test: Pre-emerge greenhouse test, crop damage rating; details: 14 days after application, rating scale 0-100
# From the text: as §1, §2, §3, §4
# [13] = system: Johnsongrass (Sorghum halepense, SORHA); test: Post-emerge greenhouse herbicide test, phytotoxicity rating; details: 14 days after application
# From the text: as §1, §3
# (§5) In the post-emerge test, a commercial non-ionic surfactant was also included (0.25% v/v) to enhance wetting of the leaf surfaces Qf target plants at rates ranging from 63 g ai/ha to 1000 g ai/ha. For post-emerge tests, seeds were planted 8-21 days prior to the test to allow emergence and good foliage development prior to application of the test substances. At the time of the post-emerge application, plants of all species were usually at the 2-3 leaf stage of development. Post-emerge test units were always bottom-watered.
# as §4
# [14] = system: barnyardgrass (Echinochloa crusgalli, ECHCG); test: as above; details: 14 days after application
# From the text: as §1, §3, §5, §4
# [15] = system: green foxtail (Setaria viridis, SETVI); test: as above; details: 14 days after application
# From the text: as §1, §3, §5, §4
# [16] = system: ivyleaf morningglory (Ipomoea hederacea, IPOHE); test: as above; details: 14 days after application
# From the text: as §1, §3, §5, §4
# [17] = system: lambsquarters (Chenopodium album, CHEAL); test: as above; details: 14 days after application
# From the text: as §1, §3, §5, §4
# [18] = system: large crabgrass (Digitaria sanguinalis, DIGSA); test: as above; details: 14 days after application
# From the text: as §1, §3, §5, §4
# [19] = system: redroot pigweed (Amaranthus retroflexus, AMARE); test: as above; details: 14 days after application
# From the text: as §1, §3, §5, §4
# [20] = system: sicklepod (Cassia obtusifolia, CASOB); test: as above; details: 14 days after application
# From the text: as §1, §3, §5, §4
# [21] = system: velvetleaf (Abutilon theophrasti, ABUTH); test: as above; details: 14 days after application
# From the text: as §1, §3, §5, §4
# [22] = system: field corn (Zea mays L., var. Dekalb 535, CORN); test: Post-emerge greenhouse test, crop damage rating; details: 14 days after application
# From the text: as §1, §3, §5, §4
# [23] = system: upland rice (Oryza sp., var.Tebonnet, RICE); test: Post-emerge greenhouse test, crop damage rating; details: 14 days after application
# From the text: as §1, §3, §5, §4
# [24] = system: soybean (Glycine max L., var. Pella 86, SOY); test: Post-emerge greenhouse test, crop damage rating; details: 14 days after application
# From the text: as §1, §3, §5, §4
compound,measurement,setting,value
O=c1cc2n(c(=O)n1-c1cc(Oc3ncccn3)c(Cl)cc1F)CCC2 [Compound 5-12],phytotoxicity rating SORHA,[1]; 125 g ai/ha,40
same,phytotoxicity rating SORHA,[1]; 500 g ai/ha,100
same,phytotoxicity rating ECHCG,[2]; 125 g ai/ha,20
same,phytotoxicity rating ECHCG,[2]; 500 g ai/ha,100
same,phytotoxicity rating SETVI,[3]; 125 g ai/ha,100
same,phytotoxicity rating SETVI,[3]; 500 g ai/ha,100
same,phytotoxicity rating IPOHE,[4]; 125 g ai/ha,80
same,phytotoxicity rating IPOHE,[4]; 500 g ai/ha,100
same,phytotoxicity rating CHEAL,[5]; 125 g ai/ha,100
same,phytotoxicity rating CHEAL,[5]; 500 g ai/ha,100
same,phytotoxicity rating DIGSA,[6]; 125 g ai/ha,100
same,phytotoxicity rating DIGSA,[6]; 500 g ai/ha,100
same,phytotoxicity rating AMARE,[7]; 125 g ai/ha,100
same,phytotoxicity rating AMARE,[7]; 500 g ai/ha,100
same,phytotoxicity rating CASOB,[8]; 125 g ai/ha,50
same,phytotoxicity rating CASOB,[8]; 500 g ai/ha,100
same,phytotoxicity rating ABUTH,[9]; 125 g ai/ha,100
same,phytotoxicity rating ABUTH,[9]; 500 g ai/ha,100
same,crop damage rating CORN,[10]; 125 g ai/ha,10
same,crop damage rating CORN,[10]; 500 g ai/ha,40
same,crop damage rating RICE,[11]; 125 g ai/ha,60
same,crop damage rating RICE,[11]; 500 g ai/ha,100
same,crop damage rating SOY,[12]; 125 g ai/ha,40
same,crop damage rating SOY,[12]; 500 g ai/ha,80
same,SORHA phytotoxicity rating (0-100),[13]; 63 g al/ha,0
same,SORHA phytotoxicity rating (0-100),[13]; 500 g al/ha,20
same,ECHCG phytotoxicity rating (0-100),[14]; 63 g al/ha,0
same,ECHCG phytotoxicity rating (0-100),[14]; 500 g al/ha,40
same,SETVI phytotoxicity rating (0-100),[15]; 63 g al/ha,0
same,SETVI phytotoxicity rating (0-100),[15]; 500 g al/ha,50
same,IPOHE phytotoxicity rating (0-100),[16]; 63 g al/ha,40
same,IPOHE phytotoxicity rating (0-100),[16]; 500 g al/ha,30
same,CHEAL phytotoxicity rating (0-100),[17]; 63 g al/ha,60
same,CHEAL phytotoxicity rating (0-100),[17]; 500 g al/ha,75
same,DIGSA phytotoxicity rating (0-100),[18]; 63 g al/ha,0
same,DIGSA phytotoxicity rating (0-100),[18]; 500 g al/ha,40
same,AMARE phytotoxicity rating (0-100),[19]; 63 g al/ha,80
same,AMARE phytotoxicity rating (0-100),[19]; 500 g al/ha,40
same,CASOB phytotoxicity rating (0-100),[20]; 63 g al/ha,10
same,CASOB phytotoxicity rating (0-100),[20]; 500 g al/ha,50
same,ABUTH phytotoxicity rating (0-100),[21]; 63 g al/ha,60
same,ABUTH phytotoxicity rating (0-100),[21]; 500 g al/ha,95
same,CORN crop damage rating (0-100),[22]; 63 g al/ha,0
same,CORN crop damage rating (0-100),[22]; 500 g al/ha,20
same,RICE crop damage rating (0-100),[23]; 63 g al/ha,0
same,RICE crop damage rating (0-100),[23]; 500 g al/ha,70
same,SOY crop damage rating (0-100),[24]; 63 g al/ha,50
same,SOY crop damage rating (0-100),[24]; 500 g al/ha,100
"CCN1CC(=O)N(c2cc(Oc3ncccc3C(F)(F)F)c(Cl)cc2F)C1=O [Compound 8-1, 3-[4-chloro-2-fluoro-5-(trifluoromethyl-2-pyridyloxy)phenyl]-1-ethylimidazolidine-2,4-dione]",phytotoxicity rating SORHA,[1]; 500 g ai/ha,60
same,phytotoxicity rating ECHCG,[2]; 500 g ai/ha,40
same,phytotoxicity rating SETVI,[3]; 500 g ai/ha,85
same,phytotoxicity rating IPOHE,[4]; 500 g ai/ha,30
same,phytotoxicity rating CHEAL,[5]; 500 g ai/ha,100
same,phytotoxicity rating DIGSA,[6]; 500 g ai/ha,100
same,phytotoxicity rating AMARE,[7]; 500 g ai/ha,100
same,phytotoxicity rating CASOB,[8]; 500 g ai/ha,70
same,phytotoxicity rating ABUTH,[9]; 500 g ai/ha,95
same,crop damage rating CORN,[10]; 500 g ai/ha,0
same,crop damage rating RICE,[11]; 500 g ai/ha,30
same,crop damage rating SOY,[12]; 500 g ai/ha,0
same,SORHA phytotoxicity rating (0-100),[13]; 500 g al/ha,0
same,ECHCG phytotoxicity rating (0-100),[14]; 500 g al/ha,0
same,SETVI phytotoxicity rating (0-100),[15]; 500 g al/ha,10
same,IPOHE phytotoxicity rating (0-100),[16]; 500 g al/ha,70
same,CHEAL phytotoxicity rating (0-100),[17]; 500 g al/ha,85
same,DIGSA phytotoxicity rating (0-100),[18]; 500 g al/ha,0
same,AMARE phytotoxicity rating (0-100),[19]; 500 g al/ha,40
same,CASOB phytotoxicity rating (0-100),[20]; 500 g al/ha,30
same,ABUTH phytotoxicity rating (0-100),[21]; 500 g al/ha,90
same,CORN crop damage rating (0-100),[22]; 500 g al/ha,0
same,RICE crop damage rating (0-100),[23]; 500 g al/ha,0
same,SOY crop damage rating (0-100),[24]; 500 g al/ha,50
